In paper PMC11117309:
Non-standard residues stand in square brackets, D forms with d. Residues, ends and D or L forms follow the SMILES beside them.

CC[C@@H](C)[C@@H](NC(=O)[C@@H](C)NC(=O)[C@@H](CCC(=O)O)NC(=O)[C@H](NC(=O)[C@@H](CC(C)C)NC(=O)[C@@H](CCC(=O)O)NC(=O)CNC(=O)[C@@H](C)NC(=O)[C@@H](C)NC(=O)[C@@H](CC(C)C)NC(=O)[C@H](NC(=O)[C@@H](Cc1ccccc1)NC(=O)[C@@H](CC(C)C)NC(=O)[C@@H](CCC(=O)O)NC(=O)[C@@H](CC(C)C)NC(=O)[C@@H](Cc1ccccc1)NC(=O)[C@@H](C)NC(=O)[C@@H](CCCCN)NC(=O)CNC(=O)[C@H](N)CCCNC(=N)N)[C@H](C)CC)[C@H](C)CC)C(=O)N[C@H](CC(=O)O)C(=O)N[C@H](CCCNC(=N)N)C(=O)N[C@@H](C(=O)N[C@H](Cc1ccccc1)C(=O)N[C@@H](C(=O)NCC(=O)N[C@H](CCC(=O)O)C(=O)N[C@H](C)C(=O)N[C@H](Cc1c[nH]cn1)C(=O)O)[C@H](C)O)[C@H](C)O (H-[dR]G[dK][dA][dF][dL][dE][dL][dF][dI][dL][dA][dA]G[dE][dL][dI][dE][dA][dI][dD][dR][dT][dF][dT]G[dE][dA][dH]-OH)
peptide remaining after proteinase K exposure: > 88%
